pEC50: −log10 of the molar value. Peptide text beside a SMILES is read from it.
Experiments:
CRF2R = target: T1, CRF2R (Homo sapiens, UniProt Q13324); experiment: CRF2R agonist activity (EC50, Emax), called comparative CRF binding; format: cell-based; conditions: read-out: CRF2R EC50
T1 sequence (Q13324 1-411): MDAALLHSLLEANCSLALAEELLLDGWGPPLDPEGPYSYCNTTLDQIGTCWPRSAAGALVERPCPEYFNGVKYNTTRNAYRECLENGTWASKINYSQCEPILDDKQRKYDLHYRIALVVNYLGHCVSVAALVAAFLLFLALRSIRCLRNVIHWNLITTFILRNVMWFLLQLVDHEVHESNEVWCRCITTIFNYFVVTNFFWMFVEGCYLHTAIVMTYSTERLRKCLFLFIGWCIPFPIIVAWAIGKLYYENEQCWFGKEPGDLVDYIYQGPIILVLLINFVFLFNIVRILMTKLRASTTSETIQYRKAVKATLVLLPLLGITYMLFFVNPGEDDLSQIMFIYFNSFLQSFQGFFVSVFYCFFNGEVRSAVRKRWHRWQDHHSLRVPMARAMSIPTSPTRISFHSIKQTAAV
Text: (§1) The pharmacological activity and selectivity of the peptides of present invention can be determined using published test procedures. See, e.g, U.S. patent application Ser. No. 09/799,978. Because CRF2R and CRF1R are homologous proteins, it is expected that a certain proportion of agonists for CRF2R will also function as agonists of CRF1R. As discussed above, activation of CRF1R induces activation of the HPA axis since increased corticosteroid production leads to skeletal muscle atrophy. In most cases in which an increase in muscle mass or function is desired, it is not desirable to activate the HPA axis.
(§2) Because it is desirable to discriminate binding between CRF2R, as compared with CRF1R, the assays described above may be conducted using a cell, or membrane from a cell, which expresses only CRF2R or the assays can be conducted with a recombinant source of CRF2R. Cells expressing both forms of CRFR may be modified using homologous recombination to inactivate or otherwise disable the CRF1R gene. Alternatively, if the source of CRFR contains more than one CRFR type, the background signal produced by the receptor which is not of interest must be subtracted from the signal obtained in the assay. […] Known antagonists of CRFRs include, but, are not limited to, antalarmin (CRF1R selective), antisauvagine-30 (CRF2R selective) and astressin (nonselective for CRF1R/CRF2R).
(§3) Cell-based assays include the steps of contacting cells which express CRF1R or CRF2R with a peptide of the present invention or control and measuring activation of the CRFR by measuring the expression or activity of components of the CRFR signal transduction pathways.
(§4) As described in the background section above, CRFRs appear to couple through several different pathways including Gαs, Gαq or Gαi, depending upon the cell type. It is thought that agonist activation of CRFR allows the receptor to signal via any of these pathways, provided that the necessary pathway components are present in the particular cell type. Thus, to assay a particular peptide of the present invention for CRFR activation, an assay can use any of the signal transduction pathways as the readout even if the relevant cell type for treatment, in vivo, couples CRFR to skeletal muscle atrophy via a different pathway. […] Assays for measuring activation of these signaling pathways are known in the art.
(§5) For example, after contact with a peptide of the present invention, lysates of the cells can be prepared and assayed for induction of cAMP. cAMP is induced in response to Gαs activation. Because Gαs is activated by receptors other than CRFR and because a test peptide may be exerting its effect through CRFRs or by another mechanism, two control comparisons are relevant for determining whether the peptide increases levels of cAMP via activation of a CRFR. One control compares the cAMP level of cells contacted with the peptide and the cAMP level of cells contacted with a control compound (i.e., the vehicle in which the peptide is dissolved).
(§6) In one example, cAMP induction is measured with the use of DNA constructs containing the cAMP responsive element linked to any of a variety of reporter genes can be introduced into cells expressing CRFRs. Such reporter genes include, but are not limited to, chloramphenicol acetyltransferase (CAT), luciferase, glucuronide synthetase, growth hormone, fluorescent proteins (e.g., Green Fluorescent Protein), or alkaline phosphatase. Following exposure of the cells to the peptide, the level of reporter gene expression can be quantitated to determine the peptide's ability to increase cAMP levels and thus determine the peptide's ability to activate the CRFR.
(§7) In addition to using cells expressing full length CRFRs, cells can be engineered which express CRFRs containing the ligand binding domain of the receptor coupled to, or physically modified to contain, reporter elements or to interact with signaling proteins.

CRF1R = target: T2, CRF1R (Homo sapiens, UniProt P34998); experiment: CRF1R agonist activity (EC50, Emax), called comparative CRF binding; format: cell-based; conditions: read-out: CRF1R EC50
T2 sequence (P34998 24-415): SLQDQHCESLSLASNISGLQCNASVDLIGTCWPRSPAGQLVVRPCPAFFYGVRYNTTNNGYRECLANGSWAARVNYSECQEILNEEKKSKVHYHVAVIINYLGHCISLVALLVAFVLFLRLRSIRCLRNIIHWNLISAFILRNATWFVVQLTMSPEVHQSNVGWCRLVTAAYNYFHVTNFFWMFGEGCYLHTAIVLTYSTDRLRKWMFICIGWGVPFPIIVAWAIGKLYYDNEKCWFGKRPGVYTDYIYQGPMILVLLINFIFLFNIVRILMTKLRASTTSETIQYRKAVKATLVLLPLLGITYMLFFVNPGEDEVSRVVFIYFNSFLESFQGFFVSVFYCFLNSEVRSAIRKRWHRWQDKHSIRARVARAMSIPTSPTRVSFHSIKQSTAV
Text: as §1, §2, §3, §4, §5, §6, §7

SMILES	pEC50 (CRF2R)	pEC50 (CRF1R)
CC[C@H](C)[C@H](N)C(=O)N[C@H](C(=O)N[C@@H](CC(C)C)C(=O)N[C@@H](CO)C(=O)N[C@@H](CC(C)C)C(=O)N[C@@H](CC(=O)O)C(=O)N[C@H](C(=O)N1CCC[C@H]1C(=O)N[C@H](C(=O)NCC(=O)N[C@@H](CC(C)C)C(=O)N[C@@H](CC(C)C)C(=O)N[C@@H](CCC(N)=O)C(=O)N[C@@H](CCC(=O)O)C(=O)N[C@@H](CC(C)C)C(=O)N[C@@H](CC(C)C)C(=O)N[C@@H](CCC(=O)O)C(=O)N[C@@H](CCSC)C(=O)N[C@@H](C)C(=O)N[C@@H](CCCNC(=N)N)C(=O)N[C@@H](C)C(=O)N[C@@H](CCC(=O)O)C(=O)N[C@@H](CCC(N)=O)C(=O)N[C@@H](CC(C)C)C(=O)N[C@@H](C)C(=O)N[C@@H](CCC(N)=O)C(=O)N[C@@H](CCC(N)=O)C(=O)N[C@@H](C)C(=O)N[C@@H](Cc1c[nH]cn1)C(=O)N[C@@H](CO)C(=O)N[C@@H](CC(N)=O)C(=O)N[C@@H](CCCNC(=N)N)C(=O)N[C@@H](CCCCN)C(=O)N[C@@H](CC(C)C)C(=O)N[C@@H](CCSC)C(=O)N[C@@H](CCC(=O)O)C(=O)N[C@H](C(=O)N[C@H](C(N)=O)[C@@H](C)CC)[C@@H](C)CC)[C@@H](C)CC)C(C)C)C(C)C [compound 1] (H-IVLSLDVPIGLLQELLEMARAEQLAQQAHSNRKLMEII-NH2; N-terminus assumed)	7.50	6.11
CC[C@H](C)[C@H](N)C(=O)N[C@H](C(=O)N[C@@H](CC(C)C)C(=O)N[C@@H](CO)C(=O)N[C@@H](CC(C)C)C(=O)N[C@@H](CC(=O)O)C(=O)N[C@H](C(=O)N1CCC[C@H]1C(=O)N[C@H](C(=O)NCC(=O)N[C@@H](CC(C)C)C(=O)N[C@@H](CC(C)C)C(=O)N[C@@H](CCC(N)=O)C(=O)N[C@H](C(=O)N[C@@H](CC(C)C)C(=O)N[C@@H](CC(C)C)C(=O)N[C@@H](CCC(=O)O)C(=O)N[C@@H](CCC(N)=O)C(=O)N[C@H](C(=O)N[C@@H](CCCCN)C(=O)N[C@@H](C)C(=O)N[C@@H](CC(=O)O)C(=O)N[C@@H](C)C(=O)N[C@@H](C)C(=O)N[C@@H](CCCNC(=N)N)C(=O)N[C@@H](CCC(=O)O)C(=O)N[C@@H](CCC(N)=O)C(=O)N[C@@H](C)C(=O)N[C@H](C(=O)N[C@H](C(=O)N[C@@H](CC(N)=O)C(=O)N[C@@H](C)C(=O)N[C@@H](CCCNC(=N)N)C(=O)N[C@H](C(=O)N[C@@H](CC(C)C)C(=O)N[C@@H](C)C(=O)N[C@@H](CCCNC(=N)N)C(=O)N[C@H](C(N)=O)C(C)C)[C@@H](C)CC)[C@@H](C)O)[C@@H](C)O)[C@@H](C)O)[C@@H](C)CC)[C@@H](C)CC)C(C)C)C(C)C [compound 108] (H-IVLSLDVPIGLLQILLEQTKADAAREQATTNARILARV-NH2; N-terminus assumed)	7.10	< 7.00
CC[C@H](C)[C@H](N)C(=O)N[C@H](C(=O)N[C@@H](CC(C)C)C(=O)N[C@@H](CO)C(=O)N[C@@H](CC(C)C)C(=O)N[C@@H](CC(=O)O)C(=O)N[C@H](C(=O)N1CCC[C@H]1C(=O)N[C@H](C(=O)NCC(=O)N[C@@H](CC(C)C)C(=O)N[C@@H](CC(C)C)C(=O)N[C@@H](CCC(N)=O)C(=O)N[C@H](C(=O)N[C@@H](CC(C)C)C(=O)N[C@@H](CC(C)C)C(=O)N[C@@H](CCC(=O)O)C(=O)N[C@@H](CCC(N)=O)C(=O)N[C@@H](CCC(=O)O)C(=O)N[C@@H](CCCNC(=N)N)C(=O)N[C@@H](CCC(N)=O)C(=O)N[C@@H](CCCNC(=N)N)C(=O)N[C@@H](C)C(=O)N[C@@H](C)C(=O)N[C@@H](CCCNC(=N)N)C(=O)N[C@@H](CCC(=O)O)C(=O)N[C@@H](CCC(N)=O)C(=O)N[C@@H](C)C(=O)N[C@H](C(=O)N[C@H](C(=O)N[C@@H](CC(N)=O)C(=O)N[C@@H](C)C(=O)N[C@@H](CCCNC(=N)N)C(=O)N[C@H](C(=O)N[C@@H](CC(C)C)C(=O)N[C@@H](C)C(=O)N[C@@H](CCCNC(=N)N)C(=O)N[C@H](C(N)=O)C(C)C)[C@@H](C)CC)[C@@H](C)O)[C@@H](C)O)[C@@H](C)CC)[C@@H](C)CC)C(C)C)C(C)C [compound 111] (H-IVLSLDVPIGLLQILLEQERQRAAREQATTNARILARV-NH2; N-terminus assumed)	7.96	< 7.00
CC[C@H](C)[C@H](N)C(=O)N[C@H](C(=O)N[C@@H](CC(C)C)C(=O)N[C@@H](CO)C(=O)N[C@@H](CC(C)C)C(=O)N[C@@H](CC(=O)O)C(=O)N[C@H](C(=O)N1CCC[C@H]1C(=O)N[C@H](C(=O)NCC(=O)N[C@@H](CC(C)C)C(=O)N[C@@H](CC(C)C)C(=O)N[C@@H](CCC(N)=O)C(=O)N[C@H](C(=O)N[C@@H](CC(C)C)C(=O)N[C@@H](CC(C)C)C(=O)N[C@@H](CCC(=O)O)C(=O)N[C@@H](CCC(N)=O)C(=O)N[C@@H](C)C(=O)N[C@@H](CCCNC(=N)N)C(=O)N[C@@H](CCC(N)=O)C(=O)N[C@@H](CCCNC(=N)N)C(=O)N[C@@H](C)C(=O)N[C@@H](C)C(=O)N[C@@H](CCCNC(=N)N)C(=O)N[C@@H](CCC(=O)O)C(=O)N[C@@H](CCC(N)=O)C(=O)N[C@@H](C)C(=O)N[C@H](C(=O)N[C@H](C(=O)N[C@@H](CC(N)=O)C(=O)N[C@@H](C)C(=O)N[C@@H](CCCNC(=N)N)C(=O)N[C@H](C(=O)N[C@@H](CC(C)C)C(=O)N[C@@H](C)C(=O)N[C@@H](CCCNC(=N)N)C(=O)N[C@H](C(N)=O)C(C)C)[C@@H](C)CC)[C@@H](C)O)[C@@H](C)O)[C@@H](C)CC)[C@@H](C)CC)C(C)C)C(C)C [compound 114] (H-IVLSLDVPIGLLQILLEQARQRAAREQATTNARILARV-NH2; N-terminus assumed)	8.47	< 7.00
CC[C@H](C)[C@H](N)C(=O)N[C@H](C(=O)N[C@@H](CC(C)C)C(=O)N[C@@H](CO)C(=O)N[C@@H](CC(C)C)C(=O)N[C@@H](CC(=O)O)C(=O)N[C@H](C(=O)N1CCC[C@H]1C(=O)N[C@H](C(=O)NCC(=O)N[C@@H](CC(C)C)C(=O)N[C@@H](CC(C)C)C(=O)N[C@@H](CCC(N)=O)C(=O)N[C@H](C(=O)N[C@@H](CC(C)C)C(=O)N[C@@H](CC(C)C)C(=O)N[C@@H](CCC(=O)O)C(=O)N[C@@H](CCC(N)=O)C(=O)N[C@@H](CCC(=O)O)C(=O)N[C@@H](CCCCN)C(=O)N[C@@H](CCC(N)=O)C(=O)N[C@@H](CCCNC(=N)N)C(=O)N[C@@H](C)C(=O)N[C@@H](C)C(=O)N[C@@H](CCCNC(=N)N)C(=O)N[C@@H](CCC(=O)O)C(=O)N[C@@H](CCC(N)=O)C(=O)N[C@@H](C)C(=O)N[C@H](C(=O)N[C@H](C(=O)N[C@@H](CC(N)=O)C(=O)N[C@@H](C)C(=O)N[C@@H](CCCNC(=N)N)C(=O)N[C@H](C(=O)N[C@@H](CC(C)C)C(=O)N[C@@H](C)C(=O)N[C@@H](CCCNC(=N)N)C(=O)N[C@H](C(N)=O)C(C)C)[C@@H](C)CC)[C@@H](C)O)[C@@H](C)O)[C@@H](C)CC)[C@@H](C)CC)C(C)C)C(C)C [compound 115] (H-IVLSLDVPIGLLQILLEQEKQRAAREQATTNARILARV-NH2; N-terminus assumed)	7.87	< 7.00
